Measured values published in patent US20090175852A1, “IMIDAZOPYRAZINES AS PROTEIN KINASE INHIBITORS” (Schering Corporation, priority 2006, published 2009).

Legend:
[1] = molecular target: Mk2 (Homo sapiens, UniProt P49137); assay: Mk2 kinase inhibition (Table 4 activity data); format: biochemical
[2] = molecular target: T1, CHK-1 (Homo sapiens, UniProt O14757); assay: CHK-1 kinase inhibition (Table 4 activity data); format: biochemical
T1 sequence (O14757 1-476): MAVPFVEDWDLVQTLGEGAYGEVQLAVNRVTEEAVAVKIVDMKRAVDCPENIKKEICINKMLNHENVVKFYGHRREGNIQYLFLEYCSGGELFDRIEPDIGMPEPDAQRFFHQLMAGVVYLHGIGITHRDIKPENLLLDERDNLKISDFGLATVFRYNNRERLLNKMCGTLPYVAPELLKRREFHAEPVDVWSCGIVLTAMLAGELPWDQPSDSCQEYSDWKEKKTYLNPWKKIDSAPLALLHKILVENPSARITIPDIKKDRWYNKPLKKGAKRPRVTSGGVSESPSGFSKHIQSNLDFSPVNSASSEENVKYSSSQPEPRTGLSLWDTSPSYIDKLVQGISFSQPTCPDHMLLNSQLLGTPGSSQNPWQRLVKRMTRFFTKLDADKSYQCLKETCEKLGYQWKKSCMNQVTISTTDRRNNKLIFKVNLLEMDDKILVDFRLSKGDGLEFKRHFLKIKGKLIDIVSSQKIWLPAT

Sequence of Mk2 (P49137 whole entry, species assumed): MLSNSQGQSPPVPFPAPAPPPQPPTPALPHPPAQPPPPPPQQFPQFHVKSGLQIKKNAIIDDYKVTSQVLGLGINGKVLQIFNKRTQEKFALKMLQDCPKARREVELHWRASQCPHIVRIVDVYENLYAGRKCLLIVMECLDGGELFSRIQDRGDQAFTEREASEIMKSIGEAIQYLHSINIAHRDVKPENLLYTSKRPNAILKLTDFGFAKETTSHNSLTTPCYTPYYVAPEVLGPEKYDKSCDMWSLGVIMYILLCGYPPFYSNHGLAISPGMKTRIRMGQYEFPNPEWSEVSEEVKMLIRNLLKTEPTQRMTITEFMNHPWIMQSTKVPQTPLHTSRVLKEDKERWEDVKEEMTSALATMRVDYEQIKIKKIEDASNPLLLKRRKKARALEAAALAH

| SMILES | IC50 [1] [nM] | IC50 [2] [nM] |
| --- | --- | --- |
| NC(=O)c1cnc(N[C@H]2CC[C@H](N)CC2)c2nc(-c3ccc(Cl)cc3)cn12 [Compound 12] | 60 |  |
| NC(=O)c1cnc(N[C@H]2CCCNC2)c2nc(-c3ccc(Cl)cc3)cn12 [Compound 5] | 650 | 39 |
| N#Cc1cccc(-c2cn3c(C#N)cnc(N[C@H]4CCCNC4)c3n2)c1 [Compound 44] |  | 870 |
| NC(=O)c1cccc(-c2cn3c(C(N)=O)cnc(N[C@H]4CCCNC4)c3n2)c1 [Compound 39] | 810 | 55 |
